In brackets after ≈: the same amount, converted by molar mass.
Experiments:
[1] = tested on: Vancomycin resistant E. faecalis NR-31972 (VRE); test: Antibacterial MIC assay, serial dilution; type: cell-based, Enterococcus faecalis; conditions: for Selectivity index (CC50/MIC) VRE NR-31972: CC50 Vero cells / MIC; for MIC: Enterococcus faecalis, VRE, 24 h, read-out: MIC Vancomycin resistant E. faecalis NR-31972 (VRE)
Outline: (§1)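 CAMHB microdilution; inoculum OD600 0.004 (from mid-log ~0.5); cpd 128–1 μg/mL final, from 50% DMSO/water dilutions; 37 °C, 16–18 h, VRE 24 h; OD600; MIC at >90% inhibition.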

[2] = tested on: Methicillin resistant Staphylococcus epidermidis (MRSE) ATCC 35984 NRS101; test: Antibacterial MIC assay, serial dilution; type: cell-based; conditions: for Selectivity index (CC50/MIC) MRSE 35984: CC50 Vero cells / MIC; for MIC: Staphylococcus epidermidis, read-out: MIC Methicillin resistant Staphylococcus epidermidis (MRSE) ATCC 35984 NRS101
[3] = tested on: Enterococcus faecalis ATCC 29212; test: Antibacterial MIC assay, serial dilution; type: cell-based; conditions: for Selectivity index (CC50/MIC) E. faecalis 29212: CC50 Vero cells / MIC; for MIC: Enterococcus faecalis, ATCC 29112 / ATCC 29212, 24 h, read-out: MIC E. faecalis ATCC 29112
S. aureus ATCC 6538P = test: Antibacterial MIC assay, serial dilution; type: cell-based, Staphylococcus aureus; conditions: for Selectivity index (CC50/MIC) S. aureus 6538P: CC50 Vero cells / MIC; for MIC: Staphylococcus aureus, ATCC 6538P / ATCC 6539P, read-out: MIC S. aureus ATCC 6539P
Outline: as §1

S. aureus ΔNorA = test: Antibacterial MIC assay, serial dilution; type: cell-based, Staphylococcus aureus; conditions: for Selectivity index (CC50/MIC) S. aureus ΔNorA: CC50 Vero cells / MIC; for MIC: Staphylococcus aureus, read-out: MIC S. aureus ∆NorA
Outline: as §1

MRSA ATCC 43300 = test: Antibacterial MIC assay, serial dilution; type: cell-based, Staphylococcus aureus; conditions: for Selectivity index (CC50/MIC) MRSA 43300: CC50 Vero cells / MIC; for MIC: Staphylococcus aureus, read-out: MIC MRSA ATCC 43300
Outline: as §1

[4] = Cytotoxicity assay (MTS/PMS); type: cell-based; conditions: monkey, Vero cells (monkey kidney epithelial cells); 24 h treatment, MTS/PMS, average of three biological replicates; read-out: CC50 against Vero cells
Outline: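 Vero cells were allowed to adhere for 24 h in DMEM with 10% FBS at 37 °C, then exposed to serial compound dilutions for 24 h. Viability was measured by MTS/PMS (4 h, absorbance at 490 nm) and normalized to vehicle. CC50 is the concentration giving 50% viability, averaged over three biological replicates.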

With CNc1ccc(C(=O)Nc2ccn([C@H]3C=C[C@H](NC(=O)C[C@@H](N)CCN(C)C(=N)N)[C@@H](C(=O)NCCc4ccccc4)O3)c(=O)n2)cc1 [Blastimidine P3] the “Selectivity index (CC50/MIC) VRE NR-31972” value [1] was over 16, the MIC [1] was 16 µg/mL (≈ 24.3 µM) and the “Selectivity index (CC50/MIC) MRSE 35984” value [2] was over 32. The MIC [2] was 8 µg/mL (≈ 12.1 µM), the “Selectivity index (CC50/MIC) E. faecalis 29212” value [3] was over 24 and the MIC [3] was 8 to 16 µg/mL (≈ 12.1 to 24.3 µM). The “Selectivity index (CC50/MIC) S. aureus 6538P” value (S. aureus ATCC 6538P) was over 12, the MIC (S. aureus ATCC 6538P) was 16 to 32 µg/mL (≈ 24.3 to 48.6 µM) and the “Selectivity index (CC50/MIC) S. aureus ΔNorA” value (S. aureus ΔNorA) was over 48. For the same compound, the MIC (S. aureus ΔNorA) was 4 to 8 µg/mL (≈ 6.07 to 12.1 µM), the “Selectivity index (CC50/MIC) MRSA 43300” value (MRSA ATCC 43300) was over 3.0 and the MIC (MRSA ATCC 43300) was 64 to 128 µg/mL (≈ 97.2 to 194 µM). For the same compound, the CC50 at 24 h [4] was over 256 µg/mL.
With CN(CC[C@H](N)CC(=O)N[C@H]1C=C[C@H](n2ccc(NC(=O)c3ccc(NC(=O)[C@@](C)(N)CO)cc3)nc2=O)O[C@@H]1C(=O)NCCc1ccccc1)C(=N)N [Blastimidine P5] the “Selectivity index (CC50/MIC) VRE NR-31972” value [1] was over 8.0, the MIC [1] was 32 µg/mL (≈ 42.9 µM) and the “Selectivity index (CC50/MIC) MRSE 35984” value [2] was over 16. For the same compound, the MIC [2] was 16 µg/mL (≈ 21.5 µM), the “Selectivity index (CC50/MIC) E. faecalis 29212” value [3] was over 8.0 and the MIC [3] was 32 µg/mL (≈ 42.9 µM). For the same compound, the “Selectivity index (CC50/MIC) S. aureus 6538P” value (S. aureus ATCC 6538P) was over 16, the MIC (S. aureus ATCC 6538P) was 16 µg/mL (≈ 21.5 µM) and the “Selectivity index (CC50/MIC) S. aureus ΔNorA” value (S. aureus ΔNorA) was over 16. For the same compound, the MIC (S. aureus ΔNorA) was 16 µg/mL (≈ 21.5 µM), the “Selectivity index (CC50/MIC) MRSA 43300” value (MRSA ATCC 43300) was over 8.0 and the MIC (MRSA ATCC 43300) was 32 µg/mL (≈ 42.9 µM). For the same compound, the CC50 at 24 h [4] was over 256 µg/mL.

— article PMC12856912, “Structure-Guided Semisynthesis of Blasticidin S–Amicetin Chimeras as Selective Ribosome Inhibitors” (Journal of the American Chemical Society, 2026)
